Results: US20260206761A1, “HETEROARYL-TRIAZOLE COMPOUNDS AS PESTICIDES” (Bayer Aktiengesellschaft, priority 2019, published 2026)

Legend:
Format in all cases: in vivo
[1] = system: fall armyworm larvae (Spodoptera frugiperda); experiment: Spodoptera frugiperda spray test; details: 168 h, read-out: activity (mortality)
Protocol: Spodoptera frugiperda—Spray Test
Solvent: 78.0 parts by weight acetone • 1.5 parts by weight dimethylformamide
(§1) Emulsifier: alkylarylpolyglycol ether
(§2) To produce a suitable preparation of active compound, 1 part by weight of active compound is mixed with the stated amount of solvents and is diluted with water, containing an emulsifier concentration of 1000 ppm, to the desired concentration. Further test concentrations are prepared by dilution with emulsifier containing water.
Maize (Zea mays) leaf sections are sprayed with a preparation of the active ingredient of the desired concentration. Once dry, the leaf sections are infested with fall armyworm larvae (Spodoptera frugiperda).
After 7 days mortality in % is determined. 100% means all caterpillars have been killed and 0% means none of the caterpillars have been killed.

[2] = system: Rhipicephalus microplus larvae (strain Parkhurst, resistant against synthetic pyrethroids); experiment: Rhipicephalus (Boophilus) microplus in-vitro contact test, larval cattle tick; details: after 48 hours, read-out: activity (efficacy: larvae dead or moribund); for pest or weed control at 100 g/ha: application rate 1 pg/cm^2 (=100 g/ha); for pest or weed control at 500 g/ha: application rate 5 pg/cm^2 (=500 g/ha)
Protocol: Rhipicephalus (Boophilus) microplus—In-Vitro Contact Tests Larval Cattle Tick (Strain Parkhurst. Resistant Against Synthetic Pyrethroids)
(§3) 9 mg compound is solved in 1 mL acetone and diluted with acetone to the desired concentration. 250 μL of the test solution is filled in 25 mL glass test tubes and homogeneously distributed on the inner walls by rotation and tilting on a shaking device (2 h at 30 rpm). With a compound concentration of 900 ppm, an inner surface of 44.7 cm^2 and a homogeneous distribution, a dose of 5 μg/cm^2 is achieved.
After the solvent has evaporated, each test tube is filled with 20-50 cattle tick larvae (Rhipicephalus microplus), closed with a perforated lid and incubated in a horizontal position at 85% relative humidity and 27° C. in an incubator. After 48 hours efficacy is determined. The larvae are patted on the ground of the tubes and negative geotactic behaviour is recorded.
An efficacy of 100% means all larvae are dead or moribund; 0% means no larvae are dead or moribund.

[3] = system: adult engorged female ticks (Rhipicephalus microplus); experiment: Rhipicephalus (Boophilus) microplus injection test; details: 168 h, egg deposition after 7 days, read-out: activity (efficacy: infertile eggs); for pest or weed control at 4 pg: application rate 4 pg/animal; for pest or weed control at 0.02 mg: application rate 20 μg/animal
Protocol: Rhipicephalus (Boophilus) microplus—Injection Test
(§4) Solvent: dimethyl sulfoxide
To produce a suitable preparation of active compound, 10 mg of active compound are dissolved in 0.5 mL solvent, and the concentrate is diluted with solvent to the desired concentration.
Five adult engorged female ticks (Rhipicephalus microplus) are injected with 1 μL compound solution into the abdomen. The ticks are transferred into replica plates and incubated in a climate chamber.
After 7 days egg deposition of fertile eggs is monitored. Eggs where fertility is not visible are stored in a climate chamber till hatching after about 42 days. An efficacy of 100% means all eggs are infertile; 0% means all eggs are fertile.

[4] = system: adult unfed cat fleas (Ctenocephalides felis); experiment: Ctenocephalides felis oral test; details: 48 h, read-out: activity (mortality)
Protocol: Ctenocephalides felis—Oral Test
as §4
To produce a suitable preparation of active compound, 10 mg of active compound are dissolved in 0.5 mL solvent, and the concentrate is diluted with cattle blood to the desired concentration.
Approximately 20 adult unfed cat fleas (Ctenocephalides felis) are placed in flea chambers. The blood chamber, sealed with parafilm on the bottom, are filled with cattle blood supplied with compound solution and placed on the gauze covered top of the flea chamber, so that the fleas are able to suck the blood. The blood chamber is heated to 37° C. whereas the flea chamber is kept at room temperature.
After 2 days mortality in % is determined. 100% means all the fleas have been killed; 0% means none of the fleas have been killed.

[5] = system: larvae of the banded cucumber beetle (Diabrotica balteata); experiment: Diabrotica balteata spray test; details: 168 h, after 7 days, read-out: activity (efficacy: seedlings grown); for pest or weed control at 100 g/ha: application rate 100 g/ha (=32 pg/well)
Protocol: Diabrotica balteata—spray test
(§5) Solvent: 78.0 parts by weight of acetone • • 1.5 parts by weight of dimethylformamide
as §1
as §2, with “solvent,” for “solvents”, “and the concentrate” for “and”
Soaked wheat seeds (Triticum aestivum) are placed in a multiple well plate filled with agar and some water and are incubated for 1 day to germinate (5 seeds per well). The germinated wheat seeds are sprayed with a test solution containing the desired concentration of the active ingredient. Afterwards each unit is infected with 10-20 larvae of the banded cucumber beetle (Diabrotica balteata).
After 7 days efficacy in % is determined. 100% means all the seedlings have grown up like in the untreated, uninfected control; 0% means none of the seedlings have grown.

[6] = system: adult brown dog ticks (Rhipicephalus sanguineus); experiment: Rhipicephalus sanguineus in-vitro contact test, adult brown dog ticks; details: after 48 hours, read-out: activity (efficacy: ticks dead or moribund); for pest or weed control at 100 g/ha: application rate 1 pg/cm^2 (=100 g/ha); for pest or weed control at 5 µg/cm2, 500 g/ha: application rate 5 μg/cm^2 (=500 g/ha)
Protocol: Rhipicephalus sanguineus—In-Vitro Contact Tests with Adult Brown Dog Ticks
as §3
After the solvent has evaporated, each test tube is filled with 5-10 adult brown dog ticks (Rhipicephalus sanguineus), closed with a perforated lid and incubated in a lying position at room temperature and relative humidity. After 48 hours efficacy is determined. The ticks are patted on the ground of the tubes and are incubated on a heating plate at 45-50° C. for at most 5 minutes. Immotile or uncoordinated moving ticks, which are not able to escape the heat by climbing upwards, are marked as dead or moribund.
An efficacy of 100% means all ticks are dead or moribund; 0% means no ticks are dead or moribund.

[7] = system: green peach aphid (Myzus persicae); experiment: Myzus persicae oral test; details: 120 h, application rate 4 ppm, after 5 days
Protocol: Solvent: 100 parts by weight acetone
To produce a suitable preparation of active compound, 1 part by weight of active compound is mixed with the stated amount of solvent, and the concentrate is diluted with water to the desired concentration.
50 μL compound solution is filled in microtiter plates and 150 μL IPL41 insect medium (33%+15% sugar) is added to obtain a total volume of 200 μL per well. Afterwards the plates are sealed with parafilm through which a mixed population of the green peach aphid (Myzus persicae) can suck on the compound preparation.
After 5 days mortality in % is determined. 100% means all aphids have been killed and 0% means none of the aphids have been killed.

[8] = system: larvae of the southern green stink bug (Nezara viridula); experiment: Nezara viridula spray test; details: 96 h, after 4 days; for mortality at 100 g/ha: application rate 100 g/ha; for mortality at 500 g/ha: application rate 500 g/ha
Protocol: Nezara viridula—Spray Test
as §5, §1
as §2, with “solvent,” for “solvents”, “and the concentrate” for “and”
Barley plants (Hordeum vulgare) infested with larvae of the southern green stink bug (Nezara viridula) are sprayed with a test solution containing the desired concentration of the active ingredient.
After 4 days mortality in % is determined. 100% means all the stink bugs have been killed; 0% means none of the stink bugs have been killed.

Row | Compound | mortality at 100 g/ha [1] | mortality at 500 g/ha [1] | pest or weed control at 100 g/ha [2] | pest or weed control at 500 g/ha [2] | pest or weed control at 4 pg [3] | pest or weed control at 0.02 mg [3] | mortality at 100 ppm [4] | pest or weed control at 100 g/ha [5] | pest or weed control at 100 g/ha [6] | pest or weed control at 5 µg/cm2, 500 g/ha [6] | mortality at 4 ppm [7] | mortality at 100 g/ha [8] | mortality at 500 g/ha [8] | pest or weed control at 500 g/ha ([5]; application rate 500 g/ha (=160 pg/well))
1 | CCCc1nc([C@H](C)NC(=O)c2cc(Cl)cc(S(C)(=O)=O)c2)n(-c2ccc(C#N)cn2)n1 [I-2] | 83% | 100% | 100% | 100% | 100% | 100% | 100% | – | – | – | – | – | – | –
2 | CCS(=O)(=O)c1cc(Cl)cc(C(=O)N[C@@H](C)c2nc(C3CC3)nn2-c2ccc(C#N)cn2)c1 [I-20] | 100% | – | 100% | 100% | 100% | 100% | 100% | 80% | – | – | – | – | – | –
3 | C[C@H](NC(=O)c1cc(Cl)cc(S(=O)(=O)C(F)F)c1)c1nc(C2CC2)nn1-c1ccc(C#N)cn1 [I-27] | 100% | – | 100% | 100% | 100% | – | 100% | 100% | – | – | – | – | – | –
4 | COc1nc([C@H](C)NC(=O)c2cc(OC(F)(F)F)cc(C3CC3)c2)n(-c2ccc(C#N)cn2)n1 [I-44] | 100% | – | 100% | 100% | 100% | – | – | 100% | 100% | 100% | 90% | – | – | –
5 | C[C@H](NC(=O)c1cc(Cl)cc(S(C)(=O)=O)c1)c1nc(C2CC2)nn1-c1ccc(Cl)cn1 [I-58] | 100% | – | 100% | 100% | – | – | – | 100% | 100% | 80% | 100% | 100% | 100% | –
6 | C[C@H](NC(=O)c1cc(Cl)cc(S(=O)(=O)C2CC2)c1)c1nc(C2CC2)nn1-c1ccc(Cl)cn1 [I-59] | 100% | – | 100% | 100% | – | – | – | 80% | – | – | 100% | 100% | 100% | –
7 | C[C@H](NC(=O)c1cc(F)cc(S(C)(=O)=O)c1)c1nc(C2CC2)nn1-c1ccc(Cl)cn1 [I-60] | 100% | – | 100% | 100% | – | – | – | 100% | 100% | 100% | 100% | 100% | 100% | –
8 | C[C@H](NC(=O)c1cc(OC(F)F)cc(S(C)(=O)=O)c1)c1nc(C2CC2)nn1-c1ccc(C#N)cn1 [I-65] | 100% | – | – | – | – | – | – | 100% | – | – | 100% | 100% | 100% | –
9 | C[C@H](NC(=O)c1cc(OC(F)(F)F)cc(S(C)(=O)=O)c1)c1nc(C2CC2)nn1-c1ccc(Cl)cn1 [I-69] | 100% | – | – | – | – | – | – | 100% | – | – | 100% | 90% | – | –
10 | COc1nc([C@H](C)NC(=O)c2cc(Br)cc(C3(F)CC3)c2)n(-c2ccc(C#N)cn2)n1 [I-71] | 100% | – | 100% | 100% | – | – | – | 100% | – | – | 100% | – | – | –
11 | COc1nc([C@H](C)NC(=O)c2cc(OC(F)F)cc(C3CC3)c2)n(-c2ccc(C#N)cn2)n1 [I-74] | 100% | – | 100% | 100% | – | – | – | 80% | – | – | 100% | – | – | –
12 | COc1nc([C@H](C)NC(=O)c2cc(OC(F)(F)F)cc(S(C)(=O)=O)c2)n(-c2ccc(C#N)cn2)n1 [I-75] | 100% | – | – | – | – | – | – | 80% | – | – | 100% | 100% | 90% | –
13 | COc1nc([C@H](C)NC(=O)c2cc(OC(F)F)cc(C3CC3)c2)n(-c2ncc(Cl)cn2)n1 [I-76] | 100% | – | 100% | 100% | – | – | – | 100% | – | – | 100% | – | – | –
14 | C[C@H](NC(=O)c1cc(Cl)cc(C2(C#N)CC2)c1)c1ncnn1-c1nccs1 [II-5] | – | 100% | – | – | 100% | 100% | 100% | – | – | – | – | – | – | 100%
15 | C[C@H](NC(=O)c1cc(C(F)(F)F)cc(S(C)(=O)=O)c1)c1ncnn1-c1ccc(S(C)(=O)=O)cn1 [II-56, 3-(methylsulfonyl)-N-[(1S)-1-{1-[5-(methylsulfonyl)pyridin-2-yl]-1H-1,2,4-triazol-5-yl}ethyl]-5-(trifluoromethyl)benzamide] | – | – | – | – | 100% | – | 100% | – | – | – | – | – | – | –
16 | C[C@H](NC(=O)c1cc(OC(F)F)cc(C2CC2)c1)c1ncnn1-c1ccc(C#N)cn1 [II-62] | 100% | – | 100% | 100% | 100% | – | – | 100% | 100% | 100% | 100% | – | – | –
